The results in this text go back to patent US10174016B2 (BAYER AKTIENGESELLSCHAFT, priority 2014, dated 2019).

For one experiment, the target named is human P2X2/3 receptor (Homo sapiens (Human), UniProt P56373+Q9UBL9). In words: Intracellular calcium measurement (FLIPR, Fluo-4) of antagonist activity at human P2X2/3 receptors. The experiment is classed as cell-based. As to conditions: human P2X2/3, FLIPR calcium assay, agonist α,β-Me-ATP; read-out: hP2X2/3 IC50. On the procedure: (§1) Intracellular Calcium Measurement to Assess Antagonist Activity at Human P2X3 and Human P2X2/3 Receptors
(§2) A fluorescent imaging plate reader (FLEX/FLIPR station; Molecular Devices) was used to monitor intracellular calcium levels using the calcium-chelating dye Fluo-4 (Molecular Probes). […] Cells expressing purinergic receptors P2X3 (human) or P2X2/3 (human) were plated at a density of 15,000 cells/well in collagen-coated 384-well plates approximately 20 hours before beginning the assay. […] The test compound was added in a volume of 5 μl and allowed to incubate for 30 min at 37° C. The final assay DMSO concentration is 1%. The agonist, α,β-Me-ATP, was added in a volume of 20 μl at a concentration representing the EC80 value. The fluorescence was measured for an interval of 90 sec at 2 sec intervals and analyzed based on the increase in peak relative fluorescence units (RFU) compared to the basal fluorescence. Peak fluorescence was used to determine the response to agonist obtained at each concentration of test compound by the following equation: % Response=100*(RFU(test compound)−RFU(control)/RFU(DMSO)−RFU(control))
(§3) The Examples were tested in triplicates per plate and mean values were plotted in Excel XLFit to determine IC50 values at the human P2X3 and human P2X2/3 receptors, percentage of maximal inhibition and the Hill coefficients.
(Calcium assays in cells follow changes in intracellular calcium, usually with a dye or a luminescent sensor.)

A further experiment addresses human P2X3 receptor (Homo sapiens (Human), UniProt P56373). In words: Intracellular calcium measurement (FLIPR, Fluo-4) of antagonist activity at human P2X3 receptors. The class given is cell-based. As to conditions: human P2X3, FLIPR calcium assay, agonist α,β-Me-ATP; read-out: hP2X3 IC50. The protocol: as §1, §2, §3

Chain of human P2X3 receptor (P56373 whole entry): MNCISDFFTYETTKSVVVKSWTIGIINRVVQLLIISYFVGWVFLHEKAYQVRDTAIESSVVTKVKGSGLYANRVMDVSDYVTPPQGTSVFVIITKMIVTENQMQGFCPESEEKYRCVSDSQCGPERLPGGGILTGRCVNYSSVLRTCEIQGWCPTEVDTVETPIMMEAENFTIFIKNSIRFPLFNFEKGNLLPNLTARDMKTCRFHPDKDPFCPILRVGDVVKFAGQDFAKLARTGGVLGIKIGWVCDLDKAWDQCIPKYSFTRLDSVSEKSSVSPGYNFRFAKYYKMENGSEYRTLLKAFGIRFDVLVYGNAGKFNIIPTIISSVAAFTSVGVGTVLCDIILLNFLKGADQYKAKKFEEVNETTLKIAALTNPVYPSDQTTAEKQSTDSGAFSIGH
Chain of human P2X2/3 receptor (P56373 whole entry): as above
Chain of human P2X2/3 receptor (Q9UBL9 whole entry): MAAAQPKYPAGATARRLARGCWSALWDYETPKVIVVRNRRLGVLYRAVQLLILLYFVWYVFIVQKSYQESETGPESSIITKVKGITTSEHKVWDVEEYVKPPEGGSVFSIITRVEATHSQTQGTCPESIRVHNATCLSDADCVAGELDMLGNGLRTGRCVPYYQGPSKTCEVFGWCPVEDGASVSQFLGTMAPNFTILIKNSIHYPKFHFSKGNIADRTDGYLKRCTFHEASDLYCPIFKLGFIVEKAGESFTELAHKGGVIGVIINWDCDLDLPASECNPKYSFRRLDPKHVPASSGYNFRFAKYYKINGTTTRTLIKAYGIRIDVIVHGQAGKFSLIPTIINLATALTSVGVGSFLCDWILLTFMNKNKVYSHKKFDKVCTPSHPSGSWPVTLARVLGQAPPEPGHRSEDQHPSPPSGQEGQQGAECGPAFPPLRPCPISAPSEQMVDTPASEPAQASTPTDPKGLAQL

On to `Cc1cnc(-c2cc(OCC3CC3)cc(C(=O)NC(C)c3ncc(F)cc3Cl)c2)s1` (racemic) [Example 5, N-[1-(3-Chloro-5-fluoropyridin-2-yl)ethyl]-3-(cyclopropylmethoxy)-5-(5-methyl-1,3-thiazol-2-yl)benzamide], for which the IC50 on human P2X2/3 receptor stood at 346 nM; on human P2X3 receptor, 16 nM.

In the case of `Cc1cnc(-c2cc(OCC3CC3)cc(C(=O)NC(C)c3ncc(Cl)cc3F)c2)s1` (racemic) [Example 6, N-[1-(5-Chloro-3-fluoropyridin-2-yl)ethyl]-3-(cyclopropylmethoxy)-5-(5-methyl-1,3-thiazol-2-yl)benzamide], the IC50 at human P2X2/3 receptor worked out at 38 nM; at human P2X3 receptor it was 4 nM. The matching figures for `Cc1cnc(-c2cc(OC3COC3)cc(C(=O)NC(C)c3nnc(C(F)(F)F)s3)c2)s1` (single isomer, unassigned) [Example 193, 3-(5-Methyl-1,3-thiazol-2-yl)-5-(oxetan-3-yloxy)-N-{1-[5-(trifluoromethyl)-1,3,4-thiadiazol-2-yl]ethyl}benzamide]: at least 10000 nM and 2710 nM. `Cc1cnc(-c2cc(OC3COC3)cc(C(=O)NC(C)c3nnc(C(F)(F)F)s3)c2)s1` (single isomer, unassigned) [Example 194, 3-(5-Methyl-1,3-thiazol-2-yl)-5-(oxetan-3-yloxy)-N-{1-[5-(trifluoromethyl)-1,3,4-thiadiazol-2-yl]ethyl}benzamide]: the IC50 stood at 579 nM on human P2X2/3 receptor and 46 nM at human P2X3 receptor.

`Cc1cnc(-c2cc(OC3CCNC(C(F)(F)F)C3)cc(C(=O)N[C@H](C)c3cnc(C(F)(F)F)nc3)c2)s1` (single isomer, unassigned) [Example 207]: the results for the IC50 on human P2X2/3 receptor and on human P2X3 receptor were 87 nM and 5 nM, respectively. For the molecule `Cc1cnc(-c2cc(OC3CCNC(C(F)(F)F)C3)cc(C(=O)N[C@H](C)c3cnc(C(F)(F)F)nc3)c2)s1` (single isomer, unassigned) [Example 208], the values for the IC50 at human P2X2/3 receptor and on human P2X3 receptor were 89 nM and 2 nM, respectively. As to `Cc1cnc(-c2cc(OC[C@]3(F)CCCNC3)cc(C(=O)NC(C)c3cnc(C(F)(F)F)nc3)c2)s1` (single isomer, unassigned) [Example 355], the IC50 worked out at 956 nM at human P2X2/3 receptor and 9 nM on human P2X3 receptor. The like results for `Cc1cnc(-c2cc(OCC3CCOC3)cc(C(=O)NC(C)c3ncc(F)cc3Cl)c2)s1` (stereo in doubt) [Example 69, N-[1-(3-Chloro-5-fluoropyridin-2-yl)ethyl]-3-(5-methyl-1,3-thiazol-2-yl)-5-[(3R)-tetrahydrofuran-3-ylmethoxy]benzamide] were, in that order, 937 nM and 15 nM.

As to `Cc1cnc(-c2cc(OCC3CN(C(C)C)CCO3)cc(C(=O)N[C@H](C)c3cnc(C(F)(F)F)nc3)c2)s1` (stereo in doubt) [Example 382, 3-(5-methyl-1,3-thiazol-2-yl)-5-{[(2R)-4-(propan-2-yl)morpholin-2-yl]methoxy}-N-{(1R)-1-[2-(trifluoromethyl)pyrimidin-5-yl]ethyl}benzamide], the IC50 came to 432 nM on human P2X2/3 receptor and 13 nM at human P2X3 receptor. Turning to `Cc1ccc(CNC(=O)c2cc(OCC3CC3)cc(-c3ncc(C)s3)c2)nn1` [Example 2, 3-(Cyclopropylmethoxy)-N-[(6-methylpyridazin-3-yl)methyl]-5-(5-methyl-1,3-thiazol-2-yl)benzamide], the IC50 on human P2X2/3 receptor was 251 nM; at human P2X3 receptor it was 19 nM. With `Cc1cnc(CNC(=O)c2cc(OCC3CC3)cc(-c3ncc(C)s3)c2)cn1` [Example 3, 3-(Cyclopropylmethoxy)-N-[(5-methylpyrazin-2-yl)methyl]-5-(5-methyl-1,3-thiazol-2-yl)benzamide], the IC50 at human P2X2/3 receptor was determined as 1110 nM; at human P2X3 receptor, 26 nM.

For the molecule `Cc1cnc([C@@H](C)NC(=O)c2cc(OCC3CC3)cc(-c3ncc(C)s3)c2)cn1` [Example 4, 3-(Cyclopropylmethoxy)-N-[(1R)-1-(5-methylpyrazin-2-yl)ethyl]-5-(5-methyl-1,3-thiazol-2-yl)benzamide], the values for the IC50 on human P2X2/3 receptor and on human P2X3 receptor were 98 nM and 9 nM, respectively. Regarding `Cc1cnc(-c2cc(OCC3CC3)cc(C(=O)N[C@H](C)c3nnc(C)s3)c2)s1` [Example 7, 3-(Cyclopropylmethoxy)-N-[(1R)-1-(5-methyl-1,3,4-thiadiazol-2-yl)ethyl]-5-(5-methyl-1,3-thiazol-2-yl)benzamide], the figures for the IC50 on human P2X2/3 receptor and on human P2X3 receptor were 106 nM and 8 nM, respectively. The like results for `Cc1ccc([C@@H](C)NC(=O)c2cc(OCC3CC3)cc(-c3ncc(C)s3)c2)nn1` [Example 8, 3-(Cyclopropylmethoxy)-N-[(1R)-1-(6-methylpyridazin-3-yl)ethyl]-5-(5-methyl-1,3-thiazol-2-yl)benzamide] were, in that order, 90 nM and 3 nM.

For `Cc1cnc(-c2cc(OCC3CC3)cc(C(=O)N[C@H](C)c3ccc(C(F)(F)F)nn3)c2)s1` [Example 9, 3-(Cyclopropylmethoxy)-5-(5-methyl-1,3-thiazol-2-yl)-N-{(1R)-1-[6-(trifluoromethyl)pyridazin-3-yl]ethyl}benzamide], the values for the IC50 at human P2X2/3 receptor and at human P2X3 receptor were 145 nM and 7 nM, respectively. Take `C#CCOc1cc(C(=O)NCc2ncc(Cl)cc2F)cc(-c2ncc(C)s2)c1` [Example 32, N-[(5-Chloro-3-fluoropyridin-2-yl)methyl]-3-(5-methyl-1,3-thiazol-2-yl)-5-(prop-2-yn-1-yloxy)benzamide]: the IC50 at human P2X3 receptor was 24 nM. Turning to `C#CCOc1cc(C(=O)N[C@H](C)c2ccc(C)nn2)cc(-c2ncc(C)s2)c1` [Example 37, N-[(1R)-1-(6-Methylpyridazin-3-yl)ethyl]-3-(5-methyl-1,3-thiazol-2-yl)-5-(prop-2-yn-1-yloxy)benzamide], the IC50 on human P2X2/3 receptor was 1180 nM. As to `Cc1ccc([C@@H](C)NC(=O)c2cc(OC3COC3)cc(-c3ncc(C)s3)c2)cn1` [Example 51, N-[(1R)-1-(6-methylpyridin-3-yl)ethyl]-3-(5-methyl-1,3-thiazol-2-yl)-5-(oxetan-3-yloxy)benzamide], the IC50 at human P2X2/3 receptor is 1390 nM.

In the case of `Cc1ccc(CNC(=O)c2cc(OC[C@@H]3CCCO3)cc(-c3ncc(C)s3)c2)nn1` [Example 54, N-[(6-Methylpyridazin-3-yl)methyl]-3-(5-methyl-1,3-thiazol-2-yl)-5-[(2S)-tetrahydrofuran-2-ylmethoxy]benzamide], at human P2X2/3 receptor, the IC50 is at least 10000 nM. Still for that read-out and setting: the result for `Cc1cnc(-c2cc(OC3CCOCC3)cc(C(=O)N[C@H](C)c3ccc(C(F)(F)F)nn3)c2)s1` [Example 89, 3-(5-Methyl-1,3-thiazol-2-yl)-5-(tetrahydro-2H-pyran-4-yloxy)-N-{(1R)-1-[6-(trifluoromethyl)pyridazin-3-yl]ethyl}benzamide] reads 199 nM; that for `Cc1cc(Oc2cc(C(=O)N[C@H](C)c3ccc(C(F)(F)F)nn3)cc(-c3ncc(C)s3)c2)ccn1` [Example 105, 3-[(2-Methylpyridin-4-yl)oxy]-5-(5-methyl-1,3-thiazol-2-yl)-N-{(1R)-1-[6-(trifluoromethyl)pyridazin-3-yl]ethyl}benzamide], 39 nM; that for `Cc1cnc(-c2cc(OC3CCNCC3)cc(C(=O)N[C@H](C)c3cnc(C(F)(F)F)nc3)c2)s1` [Example 138, 3-(5-Methyl-1,3-thiazol-2-yl)-5-(piperidin-4-yloxy)-N-{(1R)-1-[2-(trifluoromethyl)pyrimidin-5-yl]ethyl}benzamide], 559 nM. `Cc1cnc(-c2cc(OC3CCOCC3)cc(C(=O)N[C@H](C)c3cnc(C(F)F)nc3)c2)s1` [Example 154, N-{(1R)-1-[2-(difluoromethyl)pyrimidin-5-yl]ethyl}-3-(5-methyl-1,3-thiazol-2-yl)-5-(tetrahydro-2H-pyran-4-yloxy)benzamide]: the IC50 on human P2X2/3 receptor is 130 nM. `Cc1cnc(-c2cc(OC3(C)COC3)cc(C(=O)N[C@H](C)c3cnc(C(F)(F)F)nc3)c2)s1` [Example 156, 3-[(3-methyloxetan-3-yl)oxy]-5-(5-methyl-1,3-thiazol-2-yl)-N-{(1R)-1-[2-(trifluoromethyl)pyrimidin-5-yl]ethyl}benzamide]: the IC50 on human P2X2/3 receptor turned out to be 163 nM. Turning to `Cc1cnc(-c2cc(OCCn3cncn3)cc(C(=O)N[C@H](C)c3cnc(C(F)(F)F)nc3)c2)s1` [Example 159, 3-(5-methyl-1,3-thiazol-2-yl)-5-[2-(1H-1,2,4-triazol-1-yl)ethoxy]-N-{(1R)-1-[2-(trifluoromethyl)pyrimidin-5-yl]ethyl}benzamide], the IC50 at human P2X2/3 receptor came to 1230 nM.

`Cc1cnc(-c2cc(OC[C@H]3COCCO3)cc(C(=O)N[C@H](C)c3ccc(C(F)(F)F)nc3)c2)s1` [Example 177, 3-[(2R)-1,4-dioxan-2-ylmethoxy]-5-(5-methyl-1,3-thiazol-2-yl)-N-{(1R)-1-[6-(trifluoromethyl)pyridin-3-yl]ethyl}benzamide]: on human P2X2/3 receptor, the IC50 came out at 887 nM. For the molecule `Cc1cnc(-c2cc(OCC34CNC(CO3)C4)cc(C(=O)N[C@H](C)c3cnc(C(F)(F)F)nc3)c2)s1` (stereo partly drawn) [Example 407, 3-(5-Methyl-1,3-thiazol-2-yl)-5-[2-oxa-5-azabicyclo[2.2.1]hept-1-ylmethoxy]-N-{(1R)-1-[2-(trifluoromethyl)pyrimidin-5-yl]ethyl}benzamide], the IC50 on human P2X3 receptor is 15 nM.
